The values below come from patent US9308262B2, “Pharmaceutical composition for administration to nails” (NOVALIQ GMBH, priority 2011, dated 2016).

The structures appear in SMILES notation. Bounds are passed on as bounds.

The nature of this data set: Penetration of drug from SFA-based carrier into excised human toe nails. The class given is in vitro ADME. As to conditions: for depth below the nail surface at which significant tacrolimus concentrations were found: 1 mg/mL tacrolimus in F6H8 with 3.8 wt.-% ethanol, 1,000 min, 40 μm slices. How it is done:
Tacrolimus was dissolved in a liquid carrier comprising F6H8 and 3.8 wt.-% ethanol to obtain a clear solution having a tacrolimus concentration of 1 mg/mL. The composition was used to evaluate the penetration of tacrolimus from an SFA-based carrier into human nails.
Excised human toe nails were obtained and washed in isotonic sodium chloride solution. For each nail, a filter membrane of 16 mm in diameter (2.01 cm^2) was loaded with 30 μL of the test solution, placed onto the nail and incubated for 1,000 min. At the end of the period, the remaining amount of the test solution in the filter and on the nail was collected. From each nail, punch biopsies of 5 mm in diameter (0.1963 cm^2) were obtained. The punch biopsies were frozen and microtomised at −40° C. into 20 horizontal slices of 40 μm thickness. Each slice was extracted and analysed for tacrolimus by HPLC-MS, as were the collected amounts of non-permeated formulation.
The experiment of Example 1 was repeated, except that a solution of ciclopiroxolamine was used instead of a tacrolimus solution. The test composition contained 1% (w/v) of ciclopiroxolamine dissolved in a vehicle of F6H8 and ethanol (85/15 wt.-%).

On to `Cc1cc(C2CCCCC2)n(O)c(=O)c1` [ciclopiroxolamine], for which the “depth distribution of ciclopiroxolamine in the nail matrix” value (1% (w/v) ciclopiroxolamine in F6H8 and ethanol (85/15 wt.-%), 1,000 min) was “Significant amounts of drug were found throughout the depth of the nail matrix”. Moreover, where the note is “1% (w/v) ciclopiroxolamine in F6H8 and ethanol (85/15 wt.-%), 1,000 min incubation”, the “fraction of the administered amount of ciclopiroxolamine found in the nail matrix” value came out at 49.5%.
Turning to `C=CC[C@@H]1/C=C(\C)C[C@H](C)C[C@H](OC)[C@H]2O[C@@](O)(C(=O)C(=O)N3CCCC[C@H]3C(=O)O[C@H](/C(C)=C/[C@@H]3CC[C@@H](O)[C@H](OC)C3)[C@H](C)[C@@H](O)CC1=O)[C@H](C)C[C@@H]2OC` [tacrolimus], the “depth below the nail surface at which significant tacrolimus concentrations were found” value was found to be 400 μm. Also, under “listed as Tacrolimus”, the “depth below the nail surface at which significant tacrolimus concentrations were found” value is recorded as ≥ 400 μm. Moreover, the “total amount of tacrolimus found in the nails, relative to the administered dose” value (30 μL of 1 mg/mL tacrolimus solution in F6H8 with 3.8 wt.-% ethanol, 1,000 min incubation, HPLC-MS) was “approx. 9%”.
